Here are results for 16 compounds from patent US10219516B2, “Molecules having pesticidal utility, and intermediates, compositions, and processes, related thereto” (priority 2015, dated 2019).

Holding throughout (format): in vivo
Test [1] relates to Beet Armyworm (Spodoptera exigua, LAPHEG). Description: Bioassay on Beet Armyworm (BAW), 128-well diet tray assay. The settings on record: Species BAW (Beet Armyworm), read-out: BAW (Biological Results, rating). The method in brief:
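Diet tray, 8 wells/compound; 50 μg/cm^2 applied to diet surface (90:10 acetone-water), dried. 1–5 L2 larvae/well; 25° C., 14:10 L:D, 5–7 d. Read-out: % mortality, mean of 8 wells.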

For test [2], the system named is Cabbage Looper (Trichoplusia ni, TRIPNI). Description: Bioassay on Cabbage Looper (CL), 128-well diet tray assay. The conditions noted are these: Trichoplusia ni; Species CL (Cabbage Looper); read-out: CL (Biological Results, rating). The method in brief: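 Second-instar larvae, one to five per well, were placed on artificial diet surface-treated with 50 μg/cm^2 test molecule applied in 90:10 acetone-water and dried, eight wells per molecule. Trays were covered, vented and held at 25° C., 14:10 light-dark for five to seven days; percent mortality per well was averaged.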

In test [3] the test system is Yellow Fever Mosquito (Aedes aegypti, AEDSAE). The test is described as follows: Bioassay on Yellow Fever Mosquito (YFM), 96-well plate larval assay. The conditions noted are these: Species YFM (Yellow Fever Mosquito). The method in brief: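 Compound stocks at 4000 ppm in DMSO were diluted with 90:10 water/acetone, and 15 μL aliquots were dispensed into six replicate plates. About 1-day-old larvae in liver-powder water were added per well. Plates were covered and held at room temperature for 3 days before each well was scored for mortality.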

Take `O=C(Nc1ccc(F)cc1F)c1cccc(NC(=O)C2C(c3cc(Cl)cc(Cl)c3)C2(Cl)Cl)c1` (stereo not drawn) [F186, 3-(trans)-2,2-Dichloro-3-(3,5-dichlorophenyl)cyclopropane-1-carboxamido)-N-(2,4-difluorophenyl)benzamide]: the pest or weed control at 50 µg/cm2 in test [1] and in test [2] was 50 to 100% throughout. Besides, in test [3], the “YFM (Biological Results, rating)” value is on record as “B (More than 0-Less than 80)”.

Turning to `O=C(Nc1ccc(F)cc1F)c1cc(NC(=O)C2C(c3cc(Cl)cc(Cl)c3)C2(Cl)Br)ccc1Cl` (stereo not drawn) [F187, 5-(trans)-2-Bromo-2-chloro-3-(3,5-dichlorophenyl)cyclopropane-1-carboxamido)-2-chloro-N-(2,4-difluorophenyl)benzamide], the pest or weed control at 50 µg/cm2 in test [1] and in test [2] was 50 to 100% each time. Moreover, the “YFM (Biological Results, rating)” value in test [3] was “A (80-100)”.

For `N#Cc1cc(Cl)cc(C2C(C(=O)Nc3ccc(Cl)c(C(=O)Nc4ccc(F)cc4F)c3)C2(Cl)Cl)c1` (stereo not drawn) [F188, 2-Chloro-5-(trans)-2,2-dichloro-3-(3-chloro-5-cyanophenyl)cyclopropane-1-carboxamido)-N-(2,4-difluorophenyl)benzamide], the pest or weed control at 50 µg/cm2 in test [1] and in test [2] was 50 to 100% each time. In addition, the “YFM (Biological Results, rating)” value in test [3] is recorded as “B (More than 0-Less than 80)”.

`O=C(Nc1ccc(F)cc1)c1cc(NC(=O)[C@@H]2[C@@H](c3ccc(Cl)c(Cl)c3)C2(Cl)Cl)ccc1Cl` [F208, 2-Chloro-5-((1S,3S)-2,2-dichloro-3-(3,4-dichlorophenyl)cyclopropane-1-carboxamido)-N-(4-fluorophenyl)benzamide]: the pest or weed control at 50 µg/cm2 in test [1] and in test [2] was 50 to 100% in each case. Besides, the “YFM (Biological Results, rating)” value in test [3] was “A (80-100)”.

Turning to `O=C(Nc1ccc(F)cc1)c1cc(NC(=O)[C@H]2[C@H](c3ccc(Cl)c(Cl)c3)C2(Cl)Cl)ccc1Cl` [F209, 2-Chloro-5-((1R,3R)-2,2-dichloro-3-(3,4-dichlorophenyl)cyclopropane-1-carboxamido)-N-(4-fluorophenyl)benzamide], the pest or weed control at 50 µg/cm2 in test [1] and in test [2] was 50 to 100% each time. Also, the “YFM (Biological Results, rating)” value in test [3] is “A (80-100)”.

As for `O=C(Nc1ccc(F)cc1F)c1cc(NC(=O)[C@@H]2[C@@H](c3ccc(Cl)c(Cl)c3)C2(Cl)Cl)ccc1Cl` [F210, 2-Chloro-5-((1S,3S)-2,2-dichloro-3-(3,4-dichlorophenyl)cyclopropane-1-carboxamido)-N-(2,4-difluorophenyl)benzamide], the pest or weed control at 50 µg/cm2 in test [1] and in test [2] was 50 to 100% throughout. In addition, the “YFM (Biological Results, rating)” value in test [3] is listed as “A (80-100)”.

Take `O=C(Nc1ccc(F)cc1F)c1cc(NC(=O)[C@H]2[C@H](c3ccc(Cl)c(Cl)c3)C2(Cl)Cl)ccc1Cl` [F211, 2-Chloro-5-((1R,3R)-2,2-dichloro-3-(3,4-dichlorophenyl)cyclopropane-1-carboxamido)-N-(2,4-difluorophenyl)benzamide]: the pest or weed control at 50 µg/cm2 in test [1] and in test [2] was 50 to 100% throughout. Also, the “YFM (Biological Results, rating)” value in test [3] is reported as “A (80-100)”.

Consider `O=C(Nc1ccc(F)cc1)c1cc(NC(=O)C2C(c3cc(Cl)cc(Cl)c3)[C@@H]2Cl)ccc1Cl` (stereo partly drawn) [F212, 2-Chloro-5-((2S)-2-chloro-3-(3,5-dichlorophenyl)cyclopropane-1-carboxamido)-N-(4-fluorophenyl)benzamide], for which the pest or weed control at 50 µg/cm2 in test [1] and in test [2] was 50 to 100% throughout. Also, in test [3], the “YFM (Biological Results, rating)” value is listed as “A (80-100)”.

In the case of `O=C(Nc1ccc(F)cc1)c1cc(NC(=O)C2C(c3cc(Cl)cc(Cl)c3)[C@H]2Cl)ccc1Cl` (stereo partly drawn) [F213, 2-Chloro-5-((2R)-2-chloro-3-(3,5-dichlorophenyl)cyclopropane-1-carboxamido)-N-(4-fluorophenyl)benzamide], the pest or weed control at 50 µg/cm2 in test [1] and in test [2] was 50 to 100% in each case. Moreover, in test [3], the “YFM (Biological Results, rating)” value is “A (80-100)”.

As to `O=C(Nc1ccc(F)cc1F)c1cc(NC(=O)C2C(c3cc(Cl)cc(Cl)c3)[C@@H]2Cl)ccc1Cl` (stereo partly drawn) [F214, 2-Chloro-5-((2S)-2-chloro-3-(3,5-dichlorophenyl)cyclopropane-1-carboxamido)-N-(2,4-difluorophenyl)benzamide], the pest or weed control at 50 µg/cm2 in test [1] and in test [2] was 50 to 100% throughout. The “YFM (Biological Results, rating)” value in test [3] is reported as “B (More than 0-Less than 80)”.

`O=C(Nc1ccc(F)cc1F)c1cc(NC(=O)C2C(c3cc(Cl)cc(Cl)c3)[C@H]2Cl)ccc1Cl` (stereo partly drawn) [F215, 2-Chloro-5-((2R)-2-chloro-3-(3,5-dichlorophenyl)cyclopropane-1-carboxamido)-N-(2,4-difluorophenyl)benzamide]: the pest or weed control at 50 µg/cm2 in test [1] and in test [2] was 50 to 100% each time. Further, in test [3], the “YFM (Biological Results, rating)” value was “B (More than 0-Less than 80)”.

Turning to `CC1(c2cc(Cl)cc(Cl)c2)C(C(=O)Nc2ccc(Cl)c(C(=O)Nc3ccc(F)cc3)c2)C1(Cl)Cl` (stereo not drawn) [F251, 2-Chloro-5-trans-(2,2-dichloro-3-(3,5-dichlorophenyl)-3-methylcyclopropane-1-carboxamido)-N-(4-fluorophenyl)benzamide], the pest or weed control at 50 µg/cm2 in test [1] and in test [2] was 50 to 100% each time. For the same compound, the “YFM (Biological Results, rating)” value in test [3] is “A (80-100)”.

For `CC1(c2cc(Cl)cc(Cl)c2)C(C(=O)Nc2ccc(Cl)c(C(=O)Nc3ccc(F)cc3F)c2)C1(Cl)Cl` (stereo not drawn) [F252, 2-Chloro-5-trans-(2,2-dichloro-3-(3,5-dichlorophenyl)-3-methylcyclopropane-1-carboxamido)-N-(2,4-difluorophenyl)benzamide], the pest or weed control at 50 µg/cm2 in test [1] and in test [2] was 50 to 100% in each case. The “YFM (Biological Results, rating)” value in test [3] is given as “A (80-100)”.

With `Cc1cc(NC(=O)OC(C)(C)C)ccc1NC(=O)c1cc(NC(=O)[C@H]2[C@H](c3cc(Cl)cc(Cl)c3)C2(Cl)Cl)ccc1Cl` [F275, tert-Butyl (4-(2-chloro-5-((1R,3R)-2,2-dichloro-3-(3,5-dichlorophenyl)cyclopropane-1-carboxamido)benzamido)-3-methylphenyl)carbamate], the pest or weed control at 50 µg/cm2 in test [1] and in test [2] was 50 to 100% each time. Further, the “YFM (Biological Results, rating)” value in test [3] is “A (80-100)”.

For `Cc1cc(NC(=O)OC(C)(C)C)ccc1NC(=O)c1cc(NC(=O)[C@H]2[C@H](c3ccc(Cl)c(Cl)c3)C2(Cl)Cl)ccc1Cl` [F277, tert-Butyl (4-(2-chloro-5-((1R,3R)-2,2-dichloro-3-(3,4-dichlorophenyl)cyclopropane-1-carboxamido)benzamido)-3-methylphenyl)carbamate], the pest or weed control at 50 µg/cm2 in test [1] and in test [2] was 50 to 100% throughout. Moreover, the “YFM (Biological Results, rating)” value in test [3] is “A (80-100)”.

For the compound `O=C(Nc1ccc(F)cc1F)c1cc(NC(=O)[C@H]2[C@H](c3cc(Cl)c(Cl)c(Cl)c3)C2(Cl)Cl)ccc1Cl` [F281, 2-Chloro-5-((1R,3R)-2,2-dichloro-3-(3,4,5-trichlorophenyl)cyclopropane-1-carboxamido)-N-(2,4-difluorophenyl)benzamide], the pest or weed control at 50 µg/cm2 in test [1] and in test [2] was 50 to 100% throughout. The “YFM (Biological Results, rating)” value in test [3] is recorded as “A (80-100)”.
